# Source: ChEMBL document CHEMBL3992485 (Medchemcomm, 2016)
# Active and inactive are the calls of the source. The calls are words filed in the database; no cut-off is given here.
# Tests used:
# HeLa [1] = assay: Induction of apoptosis in human HeLa cells assessed as viable cells at 0.5 uM after 36 hrs by Annexin-V-FITC/propidium iodide staining based flow cytometry (reference value: 91%); assay type: functional; details: read-out: Activity
# HeLa [2] = assay: Induction of apoptosis in human HeLa cells assessed as necrotic cells at 0.8 uM after 24 hrs by Annexin-V-FITC/propidium iodide staining based flow cytometry (reference value: 0.084%); assay type: functional
# HeLa [3] = assay: Cell cycle arrest in human HeLa cells assessed as accumulation at S phase at 0.8 uM after 12 hrs by propidium iodide staining based flow cytometry (reference value: 49.41%); assay type: functional
# HeLa [4] = assay: Cell cycle arrest in human HeLa cells assessed as accumulation at G2/M phase at 0.8 uM after 12 hrs by propidium iodide staining based flow cytometry (reference value: 2.15%); assay type: functional
# HeLa [5] = assay: Induction of apoptosis in human HeLa cells assessed as viable cells at 0.4 uM after 24 hrs by Annexin-V-FITC/propidium iodide staining based flow cytometry (reference value: 94.4%); assay type: functional; details: read-out: Activity
# HeLa [6] = assay: Inhibition of microtubule polymerization in human HeLa cells assessed as appearance of short and curled microtubule fragments at 0.4 uM after 24 hrs by DAPI staining based confocal microscopic analysis; assay type: cell-based
# HeLa [7] = assay: Inhibition of microtubule polymerization in human HeLa cells at 0.2 uM after 24 hrs by DAPI staining based confocal microscopic analysis; assay type: cell-based
# [8] = Inhibition of tubulin polymerization in bovine brain assessed as reduction in tubulin assembly after 20 mins by spectrophotometric method; set-up: species or system Bos taurus
# HeLa [9] = assay: Induction of apoptosis in human HeLa cells assessed as early apoptotic cells at 0.4 uM after 24 hrs by Annexin-V-FITC/propidium iodide staining based flow cytometry (reference value: 2.41%); assay type: functional
# HeLa [10] = assay: Cell cycle arrest in human HeLa cells assessed as accumulation at S phase at 0.5 uM after 24 hrs by propidium iodide staining based flow cytometry (reference value: 33.78%); assay type: functional
# HeLa [11] = assay: Cell cycle arrest in human HeLa cells assessed as accumulation at G1 phase at 0.5 uM after 24 hrs by propidium iodide staining based flow cytometry (reference value: 79.19%); assay type: functional
# HeLa [12] = assay: Induction of apoptosis in human HeLa cells assessed as early apoptotic cells at 0.5 uM after 12 hrs by Annexin-V-FITC/propidium iodide staining based flow cytometry (reference value: 6.02%); assay type: functional
# HeLa [13] = assay: Induction of apoptosis in human HeLa cells assessed as necrotic cells at 0.5 uM after 24 hrs by Annexin-V-FITC/propidium iodide staining based flow cytometry (reference value: 0.35%); assay type: functional
# HeLa [14] = assay: Inhibition of microtubule polymerization in human HeLa cells assessed as abnormal chromatin distribution at 0.2 uM after 24 hrs by DAPI staining based confocal microscopic analysis; assay type: cell-based
# HeLa [15] = assay: Cell cycle arrest in human HeLa cells assessed as accumulation at G1 phase at 0.2 uM after 12 hrs by propidium iodide staining based flow cytometry (reference value: 85.81%); assay type: functional
# HeLa [16] = assay: Induction of apoptosis in human HeLa cells assessed as early apoptotic cells at 0.8 uM after 24 hrs by Annexin-V-FITC/propidium iodide staining based flow cytometry (reference value: 2.41%); assay type: functional
# HeLa [17] = assay: Cell cycle arrest in human HeLa cells assessed as accumulation at G1 phase at 0.8 uM after 12 hrs by propidium iodide staining based flow cytometry (reference value: 85.81%); assay type: functional
# HeLa [18] = assay: Induction of apoptosis in human HeLa cells assessed as late apoptotic cells at 0.5 uM after 12 hrs by Annexin-V-FITC/propidium iodide staining based flow cytometry (reference value: 2.64%); assay type: functional
# HeLa [19] = assay: Induction of apoptosis in human HeLa cells assessed as early apoptotic cells at 0.1 uM after 24 hrs by Annexin-V-FITC/propidium iodide staining based flow cytometry (reference value: 2.41%); assay type: functional
# HeLa [20] = assay: Induction of apoptosis in human HeLa cells assessed as late apoptotic cells at 0.1 uM after 24 hrs by Annexin-V-FITC/propidium iodide staining based flow cytometry (reference value: 3.1%); assay type: functional
# HeLa [21] = assay: Induction of apoptosis in human HeLa cells assessed as late apoptotic cells at 0.2 uM after 24 hrs by Annexin-V-FITC/propidium iodide staining based flow cytometry (reference value: 3.1%); assay type: functional
# HeLa [22] = assay: Cell cycle arrest in human HeLa cells assessed as accumulation at S phase at 0.4 uM after 12 hrs by propidium iodide staining based flow cytometry (reference value: 49.41%); assay type: functional
# HeLa [23] = assay: Cell cycle arrest in human HeLa cells assessed as accumulation at G2/M phase at 0.2 uM after 12 hrs by propidium iodide staining based flow cytometry (reference value: 2.15%); assay type: functional
# HeLa [24] = assay: Cell cycle arrest in human HeLa cells assessed as accumulation at G2/M phase at 0.1 uM after 24 hrs by propidium iodide staining based flow cytometry (reference value: 2.15%); assay type: functional
# HeLa [25] = assay: Induction of apoptosis in human HeLa cells assessed as necrotic cells at 0.5 uM after 36 hrs by Annexin-V-FITC/propidium iodide staining based flow cytometry (reference value: 0.35%); assay type: functional
# HepG2 = assay: Antiproliferative activity against human HepG2 cells measured after 24 hrs by MTT assay; assay type: functional, cell-based; details: HepG2, 24 h
# HeLa [26] = assay: Induction of apoptosis in human HeLa cells assessed as necrotic cells at 0.2 uM after 24 hrs by Annexin-V-FITC/propidium iodide staining based flow cytometry (reference value: 0.084%); assay type: functional
# A549 = assay: Antiproliferative activity against human A549 cells measured after 24 hrs by MTT assay; assay type: functional, cell-based; details: A549, 24 h
# HeLa [27] = assay: Induction of apoptosis in human HeLa cells after 24 hrs by Annexin-V-FITC/propidium iodide staining based flow cytometry; assay type: functional, cell-based
# HeLa [28] = assay: Cell cycle arrest in human HeLa cells assessed as accumulation at G2/M phase at 0.5 uM after 24 hrs by propidium iodide staining based flow cytometry (reference value: 8.14%); assay type: functional
# HeLa [29] = assay: Induction of apoptosis in human HeLa cells assessed as viable cells at 0.5 uM after 12 hrs by Annexin-V-FITC/propidium iodide staining based flow cytometry (reference value: 91%); assay type: functional; details: read-out: Activity
# HeLa [30] = assay: Induction of apoptosis in human HeLa cells assessed as early apoptotic cells at 0.5 uM after 24 hrs by Annexin-V-FITC/propidium iodide staining based flow cytometry (reference value: 6.02%); assay type: functional
# HeLa [31] = assay: Cell cycle arrest in human HeLa cells assessed as accumulation at G2/M phase at 0.5 uM after 36 hrs by propidium iodide staining based flow cytometry (reference value: 8.14%); assay type: functional
# HeLa [32] = assay: Induction of apoptosis in human HeLa cells assessed as late apoptotic cells at 0.8 uM after 24 hrs by Annexin-V-FITC/propidium iodide staining based flow cytometry (reference value: 3.1%); assay type: functional
# HeLa [33] = assay: Cell cycle arrest in human HeLa cells assessed as accumulation at S phase at 0.2 uM after 12 hrs by propidium iodide staining based flow cytometry (reference value: 49.41%); assay type: functional
# HeLa [34] = assay: Induction of apoptosis in human HeLa cells assessed as late apoptotic cells at 0.5 uM after 36 hrs by Annexin-V-FITC/propidium iodide staining based flow cytometry (reference value: 2.64%); assay type: functional
smiles,measurement,setting,value
CCn1cc(C(=O)N2CCN(S(=O)(=O)c3c(C(C)C)cc(C(C)C)cc3C(C)C)CC2)c2ccccc21,viability at 0.5 µM,HeLa [1],53.1%
same,Activity,HeLa [2],1.05%
same,Activity,HeLa [3],53.83%
same,Activity,HeLa [4],83.61%
same,viability at 0.4 µM,HeLa [5],63.6%
same,inhibition,HeLa [6],Active
same,inhibition,HeLa [7],Active
same,IC50,[8],1.82 µM
same,Activity,HeLa [9],23.1%
same,Activity,HeLa [10],55.73%
same,Activity,HeLa [11],5.23%
same,Activity,HeLa [12],8.12%
same,Activity,HeLa [13],0.303%
same,inhibition,HeLa [14],Active
same,Activity,HeLa [15],31.86%
same,Activity,HeLa [16],32.6%
same,Activity,HeLa [17],10.02%
same,Activity,HeLa [18],3.97%
same,Activity,HeLa [19],9%
same,Activity,HeLa [20],5.71%
same,Activity,HeLa [21],7.24%
same,Activity,HeLa [22],40.08%
same,Activity,HeLa [23],20.46%
same,Activity,HeLa [24],15.09%
same,Activity,HeLa [25],0.329%
same,IC50,HepG2,0.49 µM
same,Activity,HeLa [26],0.098%
same,IC50,A549,0.59 µM
same,Activity,HeLa [27],Dose-dependent effect
same,Activity,HeLa [28],54.57%
same,viability at 0.5 µM,HeLa [29],87.9%
same,Activity,HeLa [30],20.1%
same,Activity,HeLa [31],65.29%
same,Activity,HeLa [32],22.4%
same,Activity,HeLa [33],61.18%
same,Activity,HeLa [34],21.2%
